Patent publication US10556860B2, “hTERT modulators and methods of use” (Arizona Board of Regents on Behalf of the University of …, priority 2015, dated 2020)
“And” between values parts separate entries of the source, which are not always exact repeats. Equal entries are not always repeated.

How the values were obtained:
[1] = system: hTERT WT G4 (5-12 G-quadruplex); assay: CD melting (Tm), hTERT WT G4; format: binding, human
Description: Circular dichroism. Oligomers of WT, G124A, G124/125A, G138/139A and G146A were synthesized and HPSF-purified by MGW Operon, Inc. For CD analysis, oligomers (5 μM) in a buffer containing 10 mM Tris-HCl (pH 7.5) and 140 mM KCl were annealed. For the CD analysis of the complex of oligomers and compounds, oligomers (5 μM) in a buffer containing 10 mM Tris-HCl (pH 7.5) and 5 mM KCl for GTC365 or 1 mM KCl for BRACO-19 were annealed. Oligomers and GTC365 or BRACO-19 were incubated overnight at room temperature. For the full-length of C-rich strand, the oligomer in a buffer of 10 mM Na cacodylate (pH 6.6) was annealed and then incubated with GTC365 overnight. CD analysis was conducted on a Jasco 810 spectropolarimeter (Jasco, Easton, Md.) using a quartz cell with 1 mm of path length, 1 nm of band width, and 1 s of response time for spectra at 20° C. Melting curves for the determination of Tm were obtained by recording ellipticity at 262 nm with increasing temperatures from 25° C. to 95° C. at a rate of 1.6° C./min. Tm of the C-rich strand with GTC365 was obtained from the CD signal at 286 nm within 10-60° C.
CD and DMS footprinting analyses were conducted to characterize the binding of GTC365 and BRACO-19 to the 5-12 G-quadruplex. […] To verify the effects of compounds on the thermal stability of the WT and the mutant G-quadruplexes, Tms were determined by CD. […] Since acridine derivatives are known to bind to telomeric G-quadruplex, the effects of GTC365 and BRACO-19 on telomeric G-quadruplex stability were compared by CD.

[2] = system: G138/139A mutant hTERT 5-12 fragment; assay: Single-molecule laser tweezer unfolding, G138/139A mutant; format: biochemical, human; conditions: 2 μM
Description: Single-molecule tweezer. Preparation of the DNA construct. The DNA construct that contains the single-stranded hTERT 5-12 fragment was prepared by sandwiching the target sequence between two double-stranded DNA handles. Five deoxythymidines were added at both ends of the hTERT 5-12 fragment to reduce the interference from the double-stranded DNA handles on the target sequence. Briefly, the 2690-base-pair double-stranded DNA handle was prepared through restriction enzyme digestion of the pEGFP vector (Clontech, Mountain View, Calif.). In the first step, the vector was digested by Sad and Eagl restriction enzymes, followed by purification with agarose gel. The EagI end of the DNA fragment was labeled with digoxigenin using terminal deoxynucleotidyl transferase. […]
Single-molecule force-ramp assay. […] After this, the two beads were moved apart to increase the tension on the DNA tether with a loading rate of 5.5 pN/s, and the force-extension (F-X) curves were recorded using the LabVIEW program (National Instruments Corp., Austin, Tex.).
The F-X curves were filtered by Savitzky-Golay function with a 10 ms time constant in the MATLAB program (The Math Works, Natick, Mass.). […] The change-in-contour length (ΔL) was calculated based on the Δx through the worm-like chain model (equation 1). […]

MYC mRNA = assay: qPCR of MYC mRNA in MCF7 cells; format: cell-based, human; conditions: 72 h
Description: qPCR. MCF7 and melanoma cells were treated with GTC365 and BRACO-19 for 72 h. Total RNA was extracted using an RNeasy mini-prep kit (Qiagen) and quantitated by measuring absorbance at 260 nm. cDNA was synthesized using a Takara PrimeScript™ RT Reagent Kit with gDNA eraser and then used as a template for qPCR. The qPCR was performed using Kapa Probe Fast qPCR Master Mix with ABI Taqman probes of hTERT (Hs00972656_m1), BCL2 (HS00608023_m1, FAM-labeled) or MYC (Hs00153408_m1), and GAPDH (Hs02758991_g1, VIC-labeled). The Ct values were measured by running Rotor-Gene Q, and the relative quantity of hTERT, BCL2, and MYC mRNA was obtained compared to GAPDH as an internal control.
BCL2 is a downstream molecule to hTERT such that BCL2 expression is activated by hTERT to repress apoptosis. To further define the effect of GTC365 on the transcription of hTERT, the relative mRNA levels of MYC and BCL2 were determined by quantitative PCR analysis in MCF7 cells after treatment with GTC365 for 72 h. […] A series of GTC260 analogs were synthesized and their effect on hTERT gene expression in MCF7A and U87 cells determined (FIG. 7). […] Therefore, GTC365 directly repressed the transcription of hTERT and then led to a downstream decrease of BCL2 expression.

Structure (SMILES) | increase in Tm (ΔTm) ([1]; 1 equivalent) | increase in Tm (ΔTm) ([1]; 2 equivalents) | population of fully folded structures [2] | effect on MYC mRNA level (MYC mRNA) | increase in Tm (ΔTm) ([1]; 0.5 equivalents)
N=C(N)NCCCS(=O)(=O)Nc1ccc(Nc2c3ccccc3nc3cc([N+](=O)[O-])ccc23)cc1 [GTC365] | 6.47 °C | 12.9 °C and 12.92 °C | significantly recovered | no significant change | –
CN(C)c1ccc(Nc2c3ccc(NC(=O)CCN4CCCC4)cc3nc3cc(NC(=O)CCN4CCCC4)ccc23)cc1 [BRACO-19, reference compound] | 8.73 °C | – | minimallypromoted the fully folded structure | decreased | 2.41 °C
